Measurements taken from a melting point compilation (Tetko et al.; mined from patent text by program, amines drawn as free bases though some values may be those of a salt).

First: CCCCCCCCCCCCC(=O)/C=C/C(=O)O
Second: CCCCCCC(=N)NC(=S)Nc1ccc(F)cc1
The melting point of the first is higher: 97.5 to 98.5 °C for the first, 75 to 76 °C for the second.

Compared with `O=CN(O)C(CCO)CS(=O)(=O)c1ccccc1Oc1ccc(OC(F)(F)F)cc1` (stereo unspecified), `NS(=O)(=O)c1ccc(C(=O)NCCc2ccccc2)cc1` is higher in melting point: 120 to 123 °C for the first, 243 to 245 °C for the second.

First: CC(=O)NC1CCc2c([nH]c3ccccc23)C1 (stereo unspecified)
Second: C=C1C(=O)N[C@@H](Cc2ccccc2)C(=O)N1C(C)C
The melting point of the first is higher: 203 to 206 °C for the first, 141 to 142 °C for the second.

Compared with `CCc1ncnc(NC(CO)CO)c1Cl`, `CCOc1nc(=O)n([C@H]2CS[C@@H](CO)O2)cc1F` (relative stereo) is higher in melting point: 104 to 105 °C for the first, 162 to 164 °C for the second.

First: CN1CCN(c2nc3c(cc2F)c(=O)n(OCc2ccccc2)c(=O)n3C2CC2)CC1
Second: COc1ccn2nc(-c3ccccc3)c(-c3ccc(=O)n(C4CCN(C)CC4)n3)c2c1
The melting point of the first is higher: 188 to 189 °C for the first, 154 to 155 °C for the second.

First: C=C(C)Cn1c(N)c(N)c(=O)n(C)c1=O
Second: CCOC(=O)c1ccc2nnc(-c3ncc([N+](=O)[O-])n3C)n2n1
The melting point of the first is lower: 152 to 153 °C for the first, 180 to 182 °C for the second.

Compared with `Cc1ncc(CN2CC=C(/C=C/c3ccccc3)CC2)c(N)n1`, `CCCCCCn1c(CN2CCC[C@H]2C(=O)O)nc2cc(-c3ccccc3-c3nn[nH]n3)ccc21` is lower in melting point: 199 to 203 °C for the first, 150 to 155 °C for the second.

First: O=C1C2=C(CCCC2)C(Cl)N1c1ccc(Cl)cc1F (stereo unspecified)
Second: CCC(COC)c1ccc(Cl)c2nc3n(c12)CCCN3c1ccc(Cl)cc1Cl (stereo unspecified)
The melting point of the first is lower: 89 to 90 °C for the first, 130 to 131 °C for the second.

Going from `C=CCOc1cn(C)c2cc(OCC(F)(F)F)ccc2c1=O` to `COc1ncccc1Oc1cc(-n2c(=O)cc(C(F)(F)F)n(C)c2=O)c(F)cc1Cl`, the melting point rises from 120 °C to 180 °C.

Compared with `O=Cc1[nH]cc2c1CN=C(c1ccccc1Cl)c1cc(Cl)ccc1-2`, `O=C(c1cc(-c2ccccc2)c(N2CCOCC2)s1)c1ccc(Cl)cc1Cl` is lower in melting point: 270 to 274 °C for the first, 198 to 199 °C for the second.

First: Nc1ccc(SCCn2cnnc2)cc1
Second: NC(=O)CC1(c2ccccc2)C(=O)Nc2ccccc21 (stereo unspecified)
The melting point of the first is lower: 160 to 162 °C for the first, 184 to 185 °C for the second.

Compared with `COc1nc(SC)nc(OC)c1C=CC(C)=O`, `CSc1nc(Br)cc(Br)n1` is lower in melting point: 112 °C for the first, 82 to 84 °C for the second.

First: O=C(O)CSCCCCCCn1nc(-c2ccccc2)c(-c2ccccc2)c1-c1ccccc1
Second: O=C(O)c1cn(Cc2cccc(Oc3ccccc3)c2)nc1-c1ccccc1
The melting point of the first is lower: 92 to 97 °C for the first, 148 to 149 °C for the second.

Compared with `COc1ccc(-c2nc(Sc3ccc(C)cc3)[nH]c2-c2ccc(OC)cc2)cc1`, `COc1ccc(C(=O)c2[nH]c3ccc(Cl)cc3c2CC(=O)O)cc1` is higher in melting point: 181 °C for the first, 232 to 235 °C for the second.

First: CC(C)(C)OC(=O)CN1C(=O)C(N)C1CCc1ccco1 (stereo unspecified)
Second: CCOC(=O)CN1CCc2c(sc(N)c2C(=O)c2ccc(Cl)cc2)C1
The melting point of the first is lower: 85 to 87 °C for the first, 105 to 106 °C for the second.

First: Cc1ncc(CN2C(=O)c3ccccc3C2=O)n1-c1ccc(Cl)cc1C(=O)c1ccccc1F
Second: O=C(O)c1c2c(nc3ccc(Br)cc13)-c1ccc(-c3ccccc3F)cc1CCC2
The melting point of the first is lower: 192 to 196 °C for the first, > 300 °C for the second.

Compared with `O=C(CCCl)c1cc2c3c(c1)CCN3C(=O)CC2`, `CCNC(=O)C1CC2(NC(=O)NC2=O)c2cc(F)ccc2O1` (stereo unspecified) is higher in melting point: 154 to 155 °C for the first, > 300 °C for the second.

First: CC(=NOCCOS(C)(=O)=O)c1ccc(-c2ccc(F)cc2)cc1
Second: O=C(O)Cc1cccc(C(=O)c2ccc(Cl)cc2)c1[N+](=O)[O-]
The melting point of the first is lower: 103 to 106 °C for the first, 164 to 165 °C for the second.

First: COc1cc(COc2cc(/C=C/c3ccccn3)n(-c3ccccc3)n2)ccc1OCc1nc(-c2ccco2)oc1C
Second: COc1cc(-n2ccc(C)n2)ccc1C(=O)N1Cc2cccn2Cc2ccccc21
The melting point of the first is higher: 122 to 123 °C for the first, 92 to 94 °C for the second.

First: COc1ccc(-c2cnc3cc4cn[nH]c4cc3n2)cc1F
Second: Cc1cc(-c2ccc(C(F)(F)F)cn2)nc(-c2cccc(-c3cccc(S(N)(=O)=O)c3)n2)n1
The melting point of the first is lower: 175 to 179 °C for the first, 246 to 252 °C for the second.

`C#CCN(C)Cc1ccc([N+](=O)[O-])cc1` gave a melting point of 47 to 49 °C.
